In the NIST ThermoML archive (doi:10.1021/je060490w):

Experiments:
[1] = xn = mol fraction of the nth substance listed; settings: Pendant drop shape
[2] = for surface tension liquid-gas: Pendant drop shape; for mass density: 101.33 kPa, Liquid

COC(C)(C)OC [3,3-dimethyl-2,4-dioxapentane] + Cc1cc(C)cc(C)c1
[1]
Settings	surface tension liquid-gas [mN/m]
298.15 K, x1 = 0.05	27.6
298.15 K, x1 = 0.1002	27.14
298.15 K, x1 = 0.1494	26.72
298.15 K, x1 = 0.2001	26.28
298.15 K, x1 = 0.252	25.88
298.15 K, x1 = 0.3001	25.47
298.15 K, x1 = 0.3496	25.1
298.15 K, x1 = 0.3998	24.7
298.15 K, x1 = 0.4525	24.33
298.15 K, x1 = 0.4998	23.98
298.15 K, x1 = 0.5497	23.62
298.15 K, x1 = 0.5996	23.26
298.15 K, x1 = 0.6506	22.93
298.15 K, x1 = 0.7002	22.64
298.15 K, x1 = 0.7503	22.37
298.15 K, x1 = 0.7993	22.11
298.15 K, x1 = 0.8511	21.89
298.15 K, x1 = 0.8986	21.7
298.15 K, x1 = 0.9494	21.57
298.15 K, x1 = 1	21.46
308.15 K, x1 = 0.0562	26.65
308.15 K, x1 = 0.0995	26.21
308.15 K, x1 = 0.1481	25.77
308.15 K, x1 = 0.2023	25.29
308.15 K, x1 = 0.2502	24.87
308.15 K, x1 = 0.3002	24.49
308.15 K, x1 = 0.3497	24.06
308.15 K, x1 = 0.3982	23.71
308.15 K, x1 = 0.4499	23.31
308.15 K, x1 = 0.4964	22.95
308.15 K, x1 = 0.5493	22.54
308.15 K, x1 = 0.6001	22.17
308.15 K, x1 = 0.6502	21.85
308.15 K, x1 = 0.7006	21.52
308.15 K, x1 = 0.7454	21.27
308.15 K, x1 = 0.7999	20.99
308.15 K, x1 = 0.8492	20.74
308.15 K, x1 = 0.8998	20.57
308.15 K, x1 = 0.9492	20.48
308.15 K, x1 = 1	20.43
313.15 K, x1 = 0.0511	26.21
313.15 K, x1 = 0.1023	25.71
313.15 K, x1 = 0.1503	25.26
313.15 K, x1 = 0.2014	24.79
313.15 K, x1 = 0.2506	24.39
313.15 K, x1 = 0.3013	23.95
313.15 K, x1 = 0.3498	23.56
313.15 K, x1 = 0.396	23.19
313.15 K, x1 = 0.4486	22.77
313.15 K, x1 = 0.5014	22.36
313.15 K, x1 = 0.5508	21.99
313.15 K, x1 = 0.5931	21.68
313.15 K, x1 = 0.6488	21.31
313.15 K, x1 = 0.6988	20.99
313.15 K, x1 = 0.7499	20.66
313.15 K, x1 = 0.7994	20.4
313.15 K, x1 = 0.8388	20.24
313.15 K, x1 = 0.8976	20
313.15 K, x1 = 0.944	19.95
313.15 K, x1 = 1	19.91

Cc1cc(C)cc(C)c1 [1,3,5-trimethylbenzene] + COC(C)(C)OC
[1], x2 = 0
Settings	surface tension liquid-gas [mN/m]
298.15 K	28.05
308.15 K	27.21
313.15 K	26.78

CCOC(C)OCC [1,1-diethoxyethane]
[2]
Settings	mass density [kg/m3]	surface tension liquid-gas [mN/m]
298.15 K	821.96	20.88
308.15 K	811.48	19.89
313.15 K	806.18	19.42

CCOC(C)OCC [1,1-diethoxyethane] + Cc1cc(C)cc(C)c1
[1]
Settings	surface tension liquid-gas [mN/m]
298.15 K, x1 = 0.0491	27.45
298.15 K, x1 = 0.1013	26.91
298.15 K, x1 = 0.1538	26.36
298.15 K, x1 = 0.1996	25.83
298.15 K, x1 = 0.2501	25.34
298.15 K, x1 = 0.3009	24.81
298.15 K, x1 = 0.3501	24.37
298.15 K, x1 = 0.4067	23.83
298.15 K, x1 = 0.4506	23.45
298.15 K, x1 = 0.4997	23.04
298.15 K, x1 = 0.5523	22.62
298.15 K, x1 = 0.601	22.26
298.15 K, x1 = 0.6508	21.92
298.15 K, x1 = 0.7006	21.64
298.15 K, x1 = 0.7507	21.43
298.15 K, x1 = 0.8014	21.2
298.15 K, x1 = 0.851	21.09
298.15 K, x1 = 0.8994	21.02
298.15 K, x1 = 0.9487	20.95
298.15 K, x1 = 1	20.88
308.15 K, x1 = 0.0488	26.55
308.15 K, x1 = 0.1009	25.97
308.15 K, x1 = 0.1495	25.4
308.15 K, x1 = 0.1991	24.86
308.15 K, x1 = 0.2498	24.32
308.15 K, x1 = 0.3014	23.84
308.15 K, x1 = 0.3503	23.35
308.15 K, x1 = 0.4004	22.89
308.15 K, x1 = 0.4508	22.44
308.15 K, x1 = 0.5011	22.03
308.15 K, x1 = 0.5503	21.61
308.15 K, x1 = 0.5979	21.25
308.15 K, x1 = 0.6511	20.9
308.15 K, x1 = 0.6997	20.62
308.15 K, x1 = 0.7503	20.33
308.15 K, x1 = 0.7977	20.15
308.15 K, x1 = 0.8462	20.04
308.15 K, x1 = 0.8993	19.95
308.15 K, x1 = 0.9418	19.93
308.15 K, x1 = 1	19.89
313.15 K, x1 = 0.0487	26.09
313.15 K, x1 = 0.0991	25.49
313.15 K, x1 = 0.1507	24.91
313.15 K, x1 = 0.1999	24.37
313.15 K, x1 = 0.2468	23.86
313.15 K, x1 = 0.3001	23.34
313.15 K, x1 = 0.3501	22.83
313.15 K, x1 = 0.4008	22.38
313.15 K, x1 = 0.4502	21.95
313.15 K, x1 = 0.5	21.54
313.15 K, x1 = 0.5495	21.12
313.15 K, x1 = 0.6005	20.73
313.15 K, x1 = 0.6506	20.4
313.15 K, x1 = 0.7005	20.11
313.15 K, x1 = 0.7514	19.8
313.15 K, x1 = 0.7996	19.63
313.15 K, x1 = 0.8494	19.52
313.15 K, x1 = 0.9003	19.48
313.15 K, x1 = 0.9498	19.44
313.15 K, x1 = 1	19.42

COC(C)(C)OC [3,3-dimethyl-2,4-dioxapentane]
[2]
Settings	mass density [kg/m3]	surface tension liquid-gas [mN/m]
298.15 K	845.09	21.46
308.15 K	834.41	20.43
313.15 K	828.99	19.91

Cc1ccc(C)c(C)c1 [1,2,4-trimethylbenzene] + COC(C)(C)OC
[1], x2 = 0
Settings	surface tension liquid-gas [mN/m]
298.15 K	29.3
308.15 K	28.24
313.15 K	27.71
